Laboratory results as given in patent US10478421B1, “Sortilin binding compounds, formulations, and uses thereof” (University of Florida, priority 2016, dated 2019).

Target: T1, hsortilin (Homo sapiens, UniProt Q99523)
T1 construct: Human sortilin (hsortilin) (Ser78-Asn755) with C-terminal 6-His tag; purchased R&D Systems, Inc. (Minneapolis, Minn.)
T1 sequence (Q99523 78-755): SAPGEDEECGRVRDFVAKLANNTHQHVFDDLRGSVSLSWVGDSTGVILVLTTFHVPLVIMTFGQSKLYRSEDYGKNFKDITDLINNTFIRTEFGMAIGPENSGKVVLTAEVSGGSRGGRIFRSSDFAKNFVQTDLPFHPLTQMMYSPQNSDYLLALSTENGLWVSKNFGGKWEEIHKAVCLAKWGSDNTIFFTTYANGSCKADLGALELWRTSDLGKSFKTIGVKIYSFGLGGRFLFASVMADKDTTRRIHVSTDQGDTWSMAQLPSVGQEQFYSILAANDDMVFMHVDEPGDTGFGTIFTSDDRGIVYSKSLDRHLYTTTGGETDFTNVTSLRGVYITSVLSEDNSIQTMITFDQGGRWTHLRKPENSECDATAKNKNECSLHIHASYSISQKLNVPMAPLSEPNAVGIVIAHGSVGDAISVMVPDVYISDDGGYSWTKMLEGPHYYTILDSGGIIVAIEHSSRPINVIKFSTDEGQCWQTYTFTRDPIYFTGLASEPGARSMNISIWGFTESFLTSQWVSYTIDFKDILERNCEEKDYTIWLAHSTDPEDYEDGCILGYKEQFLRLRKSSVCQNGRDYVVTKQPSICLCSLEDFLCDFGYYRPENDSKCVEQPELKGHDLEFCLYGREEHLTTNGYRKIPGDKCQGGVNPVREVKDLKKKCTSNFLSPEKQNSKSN
Experiment: Liposome floatation assay of hsortilin binding to PIP3 liposomes
Conditions: increasing concentrations of cpd984
Method: Unilamellar liposomes containing specific lipid compositions were produced using lipids dissolved in chloroform that were mixed according to mole percentages of 2.6 μmoles total phospholipid. Lipids were dried and desiccated overnight followed by incubation with PBS (2.6 ml) for 1 h. Lipids were resuspended by vortexing and disrupted by sonication for 30 min. To measure binding, a liposome floatation assay was used by adding concentrations 50 nM or 100 nM hsortilin to liposomes (150 μl) containing 5% PIP3, 20% PE and 75% PC; 10% PIP3, 20% PE, 70% PC; or 0% PIP3, 80% PC, and 20% PE as described. Samples containing 50 nM or 100 nM protein and liposomes in the presence and absence of cpd984 were incubated for 10 min at 30° C. and 630 μl of 1.65 M sucrose/PBS was added. Samples were overlaid with 630 μl of 0.75 M sucrose/PBS, and PBS to the top of the tube and centrifuged (200,000×g, 90 min, 4° C.), and floated liposomes recovered from the 0.75 M sucrose layer. Liposomes at the interface of the top and second fraction were recovered and diluted in 2 ml of PBS and re-isolated by centrifugation (16,000×g, 20 min, 4° C.). 50 μl PBS and 20 μl 5×SDS sample buffer was added to the final liposome pellet. Bound proteins were resolved by SDS-PAGE and detected by western immunoblotting following transfer to PVDF membranes.

CN1CCC[C@H]1C(=O)Nc1cccc(NC(=O)CCc2ccccc2)c1 [cpd984, (2S)-1-methyl-N-{3-[(3-phenylpropanoyl)-amino]phenyl} pyrrolidine-2-carboxamide]
effect on sortilin binding to PIP3 liposomes: increased sortilin binding to PIP3 liposomes
